This is an account of results in US5084455A, “Novel indole carboxamides” (Roussel Uclaf, priority 1985, dated 1992).

In one data set the test system is arterial blood pressure. Put plainly: Hypotensive activity on anaesthetized normotensive rats. The format is in vivo, Sprague-Dawley male rats. Conditions: 10 mg/kg, jugular vein injection. How it is done: Sprague-Dawley male rats (CR) were anaesthetized intraperitoneally with pentabarbital sodium (60 mg/kg) and a jugular vein was catheterized for the injection of the product, and a cartoid artery was catheterized for recording the arterial blood pressure. The test product was dissolved in 10% ethanol and then injected in a volume of 1 ml/kg.

The subject of data set [1] is disturbances of the cardiac rhythm. Put plainly: Anti-arrhythmic action in the rat (aconitine perfusion). Format: in vivo, male rats. How it is done: Male rats weighing 300-350 g were anesthetized intra-peritoneally with 1.20 g/kg of urethane, then tracheotomized and submitted to artificial respiration (40-50 breaths of 3 ml/minute). Needles were implanted subcutaneously so as to record the electro-cardiogram of the rats on the DII derivation signal. The products under test were administered intravenously or orally.
Five minutes after the administration of the product intravenously or 1 hour after administration orally, the jugular vein of the rats was perfused with 10 μg/minute from 0.2 ml of a solution of aconitine, and the time of appearance of disturbances of the cardiac rhythm was noted, (10 μg of aconitine corresponding to a perfusion of 0.2 ml of solution). The results are expressed as a percentage of the extension of the time of appearance of the disturbances of the cardiac rhythm as compared with controls, and as a function of the dose of the product under test.

Data set [2] concerns the target T1, beta1-adrenergic receptors (Rattus norvegicus, UniProt P18090).
T1 construct: 10 cortexes removed from the brains of male rats weighing 150 g on average were homogenized; from tissue; host or cells: rat brain cortex, crude membrane fraction
Nature of the data set: Affinity for beta1-adrenergic receptors ([3H]dihydroalprenolol binding, brain cortex). The settings on record: relative to propanolol, [3H]dihydroalprenolol 10^-9 M. As for the experimental part:
(§1) The technique is modelled on that of Mohler et al [Science., Vol. 198, p. 849-851 (1977)]. 10 cortexes removed from the brains of male rats weighing 150 g on average were homogenized in 90 ml of 0.32M sucrose and after centrifugation of the homogenized mixture at 1,000 g for 20 minutes at 0° C., the supernatant was centrifuged at 30,000 g for 15 minutes at 0° to +4° C. The pellet was suspended in 120 ml of 50 mM Tris-HCl buffer pH 7.7, and centrifuged at 30,000 g for 15 minutes at 0° to +4° C. The new pellet was suspended in 480 ml of 50 mM Krebs Tris-HCl buffer pH 7.7. 2 ml of the suspension were then incubated for 10 minutes at 37° C. in the presence of [^3 H] dihydroalprenolol at a concentration of 10^-9 M, i) alone, ii) with increasing concentrations of the test product or iii) to determine the non-specific binding, with non-radioactive propanolol at a concentration of 10^-5 M. The incubated suspensions were filtered on Whatman GF/C, and the filters were washed three times with 5 ml of Krebs Tris-HCl buffer pH 7.7 at 0° C.
The radioactivity of the filters was measured by liquid scintillation. The affinity of the test product for beta1 -adrenergic receptors is given relative to propanolol as the reference product.
(§2) CD=concentration of propanolol inhibiting 50% of the specific binding of [^3 H]dihydroalprenolol.
CX=concentration of the test product inhibiting 50% of the specific binding of […].
The relative affinity is given by the relation [formula]

The target in data set [3] is T2, beta2-adrenergic receptors (Rattus norvegicus, UniProt P10608).
T2 construct: The cerebella removed from the brains of male rats weighing 150 g on average were homogenized; from tissue; host or cells: rat cerebellum, crude membrane fraction
Nature of the data set: Affinity for beta2-adrenergic receptors ([3H]dihydroalprenolol binding, cerebella). Conditions: relative to propanolol, [3H]dihydroalprenolol 10^-9 M. As for the experimental part: as §1, with “The technique was modelled on” for “The technique is modelled on”, “et al [Science, Vol. 198,” for “et al [Science., Vol. 198,”, “849-851 (1977)]. The cerebella removed from” for “849-851 (1977)]. 10 cortexes removed from”, “ml of suspension were” for “ml of the suspension were”, “of [^3 H]dihydroalprenolol at a” for “of [^3 H] dihydroalprenolol at a”, “binding, with non-radio active propranolol at a” for “binding, with non-radioactive propanolol at a”
The radioactivity of the filters was measured by liquid scintillation. The affinity of the test product for beta2 -adrenergic receptors was given relative to propanolol as the reference product.
as §2
CX=concentration of the test product inhibiting 50% of the specific binding of [^3 H]dihydroalprenolol.
The relative affinity is given by the relation ARL=100 CD/CX

In a further data set the test system is Rat caudal arteries. Nature of the data set: Test of calcium-antagonistic activity in vitro (K+ depolarized caudal arteries). The format is cell-based. The settings on record: 100 mM K+, 37° C., read-out: IC50, inhibition of the contraction due to K+ ions. How it is done: Calcium chloride was added in a volume of 250 μl to obtain a series of increasing concentrations of Ca^2+ ions ranging from 0.1 to 3.0 mM. The contractions of the arteries were recorded and a control series were thus established. The operation was repeated with the series of CA^2+ ions every 15 minutes and the preparation was washed four times after each series. When a stable response was obtained, the operation with the series of CA^2+ ions was performed in the presence of different concentrations of the test product, until a stable response was obtained.
The contractions of the arteries depend on the entry of Ca^2+ ions into the cells of the smooth muscles, and were caused by the depolarization of the smooth muscle by the K^+ ions and by the action of the noradrenaline released at presynaptic level. By starting the operation again with arteries denervated by the action of 6-OH-dopamine, the specific action due to noradrenaline was eliminated.

A further data set relates to mice. Nature of the data set: Study of the acute toxicity. Format: in vivo. The settings on record: oral. As for the experimental part: The lethal doses LD50 of the different compounds tested were evaluated after administration orally to mice. The maximum dose not causing any mortality in 8 days was called the LD0 and the following results were obtained.
[4] abbreviates: iv, read-out: Percentage extension of the time of appearance of disturbances of the cardiac rhythm.
The mark [5] stands for this setting: read-out: Percentage of prolongation in the time.

Where two headings read alike, the source gives them in different places.

T1 sequence (P18090 whole entry): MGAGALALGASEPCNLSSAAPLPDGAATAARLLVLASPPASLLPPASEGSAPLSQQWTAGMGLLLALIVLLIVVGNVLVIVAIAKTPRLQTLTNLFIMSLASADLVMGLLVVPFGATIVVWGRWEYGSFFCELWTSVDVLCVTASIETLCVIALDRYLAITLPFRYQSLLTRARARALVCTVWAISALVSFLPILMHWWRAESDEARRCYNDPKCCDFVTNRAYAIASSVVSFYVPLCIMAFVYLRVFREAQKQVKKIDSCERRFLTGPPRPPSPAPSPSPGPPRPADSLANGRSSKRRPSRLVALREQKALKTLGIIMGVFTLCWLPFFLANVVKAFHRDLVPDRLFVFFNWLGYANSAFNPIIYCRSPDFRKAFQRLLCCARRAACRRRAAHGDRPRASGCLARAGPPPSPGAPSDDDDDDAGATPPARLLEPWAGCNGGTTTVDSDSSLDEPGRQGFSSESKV
T2 sequence (P10608 whole entry): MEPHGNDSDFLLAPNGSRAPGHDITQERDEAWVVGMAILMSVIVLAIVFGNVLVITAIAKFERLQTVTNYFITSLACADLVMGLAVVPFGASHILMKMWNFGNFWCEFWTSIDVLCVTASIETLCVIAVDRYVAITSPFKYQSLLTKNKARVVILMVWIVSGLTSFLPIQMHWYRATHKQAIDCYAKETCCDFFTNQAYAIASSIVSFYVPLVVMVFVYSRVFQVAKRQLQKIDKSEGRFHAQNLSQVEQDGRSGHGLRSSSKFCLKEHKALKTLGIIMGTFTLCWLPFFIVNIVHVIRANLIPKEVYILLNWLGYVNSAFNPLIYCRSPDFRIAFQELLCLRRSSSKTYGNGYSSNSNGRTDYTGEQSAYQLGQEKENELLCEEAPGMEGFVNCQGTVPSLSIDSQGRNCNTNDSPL

Regarding `CC(C)(C)NCC(O)COc1ccccc1C(=O)Nc1cccc2[nH]ccc12` (centres unmarked) [Example 17, 2-[3-[(1,1-dimethylethyl)amino]-2-hydroxypropoxy]-N-(1H-indol-4-yl) benzamide benzoate], the “variation of the arterial blood pressure, 5 mins after administration” value with arterial blood pressure (5 min) was -55 percentage. For the same molecule, the “variation of the arterial blood pressure, 30 min. after administration” value with arterial blood pressure (30 min) was -13 percentage.

As for `CCC(C)(C)NCC(O)COc1ccccc1C(=O)Nc1cccc2[nH]ccc12` (centres unmarked) [Example 28, 2-[3-[(1,1-dimethylpropyl)amino]-2-hydroxypropoxy]-N-(1H-indol-4-yl) benzamide], in data set [1] (setting [4]), the change in vivo at 1 mg/kg amounted to 14%, the change in vivo at 2.5 mg/kg was 54% and the change in vivo at 5 mg/kg worked out at 95%. In addition, the “ARL (relative affinity for beta1-adrenergic receptors)” value in data set [2] worked out at 28%. Moreover, in data set [3], the “ARL (relative affinity for beta2-adrenergic receptors, 100 CD/CX)” value was found to be 15%. Further, the IC50 (as a rule, the concentration at which inhibition is half-maximal) in the data set with Rat caudal arteries is 2.5 µM. Moreover, the “LD0 (maximum dose not causing any mortality in 8 days)” value in the data set on mice is > 400 mg/kg.

With `O=C(Nc1cccc2[nH]ccc12)c1ccccc1OCCCNCC1CCCCC1` [Example 32, 2-[3-[Cyclohexylmethylamino]-propoxy)-N-(1H-indol-4-yl)benzamide], in data set [1] (setting [4]), the change in vivo at 1 mg/kg was found to be 43%, the change in vivo at 2.5 mg/kg turned out to be 71%, the change in vivo at 5 mg/kg worked out at 97% and the change in vivo at 6.5 mg/kg was 28%. Besides, the IC50 with Rat caudal arteries turned out to be 3.9 µM. In the data set on mice, the “LD0 (maximum dose not causing any mortality in 8 days)” value is recorded as 100 mg/kg.

As to `CC(C)(C)NCCCCOc1ccccc1C(=O)Nc1cccc2[nH]ccc12` [Example 33, 2[4-[1,1-Dimethylethylamino]butoxy]-N-(1H-indol-4-yl)benzamide], in data set [1] (setting [5]), the change in vivo at 5 mg/kg was 54% and the change in vivo at 10 mg/kg is 99%. Moreover, the IC50 in the data set on Rat caudal arteries is 6.3 µM. Further, the “LD0 (maximum dose not causing any mortality in 8 days)” value with mice was > 400 mg/kg.

Take `Cn1ccc2c(NC(=O)c3ccccc3OCC(O)CNC(C)(C)C)cccc21` (centres unmarked) [Example 34, 2-[3-[1,1-Dimethylethylamino]-2-hydroxypropoxy]-N-(1-methyl-1H-indol-4-yl) benzamide]: in data set [1] (setting [5]), the change in vivo at 2.5 mg/kg was determined as 12%, the change in vivo at 5 mg/kg is 43% and the change in vivo at 10 mg/kg was found to be 125%. In addition, the “ARL (relative affinity for beta1-adrenergic receptors)” value in data set [2] stood at 44%. Besides, the “ARL (relative affinity for beta2-adrenergic receptors, 100 CD/CX)” value in data set [3] is 81%. Besides, in the data set with Rat caudal arteries, the IC50 was 8.8 µM. In the data set on mice, the “LD0 (maximum dose not causing any mortality in 8 days)” value was 80 mg/kg.

Take `O=C(Nc1cccc2[nH]ccc12)c1ccccc1OCC(O)CN1CCN(C(c2ccccc2)c2ccccc2)CC1` (centres unmarked) [Example 46, 2-[2-Hydroxy-3-[4-(diphenylmethyl)-1-piperazinyl]propoxy]-N-(1H-indol-4-yl)benzamide]: in data set [1] (setting [5]), the change in vivo at 2.5 mg/kg was found to be 67%, the change in vivo at 5 mg/kg was 127% and the change in vivo at 10 mg/kg was 203%. Also, the IC50 in the data set on Rat caudal arteries turned out to be 0.25 µM. Besides, in the data set with mice, the “LD0 (maximum dose not causing any mortality in 8 days)” value is given as 400 mg/kg.

As to `CCC(C)(C)NCC(O)COc1ccccc1C(=O)Nc1cccc2[nH]ccc12.O=C(O)c1ccccc1` (centres unmarked) [Example 48, 2-[3-[(1,1-Dimethylpropyl)amino]-2-hydroxypropoxy]-N-(1H-indol-4-yl)benzamide benzoate], in data set [1] (setting [5]), the change in vivo at 2.5 mg/kg stood at 53% and the change in vivo at 5 mg/kg came out at 79%. Further, the “ARL (relative affinity for beta1-adrenergic receptors)” value in data set [2] is 20%. In data set [3], the “ARL (relative affinity for beta2-adrenergic receptors, 100 CD/CX)” value turned out to be 27%.
